The source of these data is patent publication US9884806B2, “Cyclic vinylogous amides as bromodomain inhibitors” (ICAHN SCHOOL OF MEDICINE AT MOUNT SINAI, priority 2013, dated 2018).

The target in data set [1] is T1, first bromodomain (BrD1) of human BRD4 (Homo sapiens, UniProt O60885).
T1 construct: the first bromodomain (BrD1) of human BRD4; poly-His (cleaved yes); made in house
The experiment in a line: Fluorescence anisotropy binding assay (competition with FITC-labeled MS417 probe). As to conditions: FITC-MS417 probe 80 nM, PBS pH 7.4, 1 hour, 25° C., read-out: BRD4_1 IC50. Put shortly: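 Competitive fluorescence anisotropy in PBS pH 7.4: 80 nM FITC-MS417 probe, 0.25 to 1 μM tag-cleaved BrD1, titrated unlabeled ligand, 1 hour at 25° C. IC50 values were fitted and converted to Ki using a corrected Cheng-Prusoff equation assuming one-site competition.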

A further data set concerns the target T2, BRD4_2 (Homo sapiens, UniProt O60885).
T2 construct: contains two tandem bromodomains (BrD1 and BrD2)
The experiment in a line: Fluorescence anisotropy binding assay (competition with FITC-labeled MS417 probe), BRD4_2. As to conditions: FITC-MS417 probe 80 nM, PBS pH 7.4, 1 hour, 25° C.

For the molecule `COc1cc(C(=O)O)ccc1NC1=C(C)C(=O)CC1` [Example 01-12, 3-methoxy-4-((2-methyl-3-oxocyclopent-1-en-1-yl)amino)benzoic acid], the melting point was 231 to 234 °C. Also, the half-maximal inhibitory concentration (IC50) in data set [1] lay in the range of 1 to 10 µM. The IC50 at BRD4_2 fell in the range of 1 to 10 µM.
`COC(=O)c1ccc(NC2=C(C)C(=O)CC2)cc1OC` [Example 01-13, methyl 2-methoxy-4-((2-methyl-3-oxocyclopent-1-en-1-yl)amino)benzoate] registered a melting point of 193 to 196 °C. Also, the half-maximal inhibitory concentration (IC50) in data set [1] fell in the range of 1 to 10 µM. Also, the IC50 at BRD4_2 lay within 1 to 10 µM.
As to `CC1=C(Nc2ccc(C(=O)O)cc2C)CCC1=O` [Example 01-14, 3-methyl-4-((2-methyl-3-oxocyclopent-1-en-1-yl)amino)benzoic acid], the melting point was 233 to 236 °C. Besides, in data set [1], the IC50 fell in the range of 1 to 10 µM. At BRD4_2, this molecule registered an IC50 of 1 to 10 µM.
As for `CC1=C(Nc2ccc(C(=O)O)c(C)c2)CCC1=O` [Example 01-16, 2-methyl-4-((2-methyl-3-oxocyclopent-1-en-1-yl)amino)benzoic acid], the melting point was 213 to 216 °C. Further, in data set [1], the IC50 was more than 10 µM. The molecule also displayed an IC50 on BRD4_2 of more than 10 µM.
As for `CC1=C(Nc2ccccc2C(N)=O)CCC1=O` [Example 01-18, 2-((2-methyl-3-oxocyclopent-1-en-1-yl)amino)benzamide], the melting point lay within 235 to 238 °C. Besides, the half-inhibitory concentration (IC50) in data set [1] was more than 10 µM. At BRD4_2, this molecule yielded an IC50 of more than 10 µM.
As to `COC(=O)c1cc(Cl)ccc1NC1=C(C)C(=O)CC1` [Example 01-20, methyl 5-chloro-2-((2-methyl-3-oxocyclopent-1-en-1-yl)amino)benzoate], the melting point was 162 to 165 °C. The half-maximal inhibitory concentration (IC50) in data set [1] was more than 10 µM. Moreover, at BRD4_2, the IC50 was more than 10 µM.
Consider `COC(=O)c1ccc(NC2=C(C)C(=O)CC2)c(F)c1` [Example 01-21, methyl 3-fluoro-4((2-methyl-3-oxocyclopent-1-en-1-yl)amino)benzoate], for which the melting point is 198 to 201 °C. Also, in data set [1], the half-inhibitory concentration (IC50) is 1 to 10 µM. For the same molecule, the IC50 at BRD4_2 is more than 10 µM.
Consider `COC(=O)c1ccc(NC2=C(C)C(=O)CC2)c(Br)c1` [Example 01-22, methyl 3-bromo-4((2-methyl-3-oxocyclopent-1-en-1-yl)amino)benzoate], for which the melting point fell in the range of 155 to 158 °C. Also, the IC50 in data set [1] was 1 to 10 µM. In addition, the IC50 at BRD4_2 is 1 to 10 µM.
As to `CC1=C(Nc2cccc(Cl)c2C(=O)O)CCC1=O` [Example 01-23, 2-chloro-6((2-methyl-3-oxocyclopent-1-en-1-yl)amino)benzoic acid], the melting point lay within 277 to 280 °C. For the same molecule, in data set [1], the IC50 is more than 10 µM. Also, the IC50 at BRD4_2 is more than 10 µM.
For `COC(=O)c1ccc(Cl)cc1NC1=C(C)C(=O)CC1` [Example 01-24, methyl 4-chloro-2-((2-methyl-3-oxocyclopent-1-en-1-yl)amino)benzoate], the melting point was in the range of 167 to 170 °C. In addition, the IC50 in data set [1] is 1 to 10 µM. This molecule also yielded an IC50 on BRD4_2 of more than 10 µM.
The like results for `CC1=C(Nc2cc(C(=O)O)ccc2Cl)CCC1=O` [Example 01-25, 4-chloro-3((2-methyl-3-oxocyclopent-1-en-1-yl)amino)benzoic acid] were, in that order, 272 to 275 °C, 1 to 10 µM and more than 10 µM.
`CC1=C(Nc2cccc3ccccc23)CCC1=O` [Example 01-26, 2-methyl-3-(naphthalen-1-ylamino)cyclopent-2-enone] registered a melting point of 166 to 168 °C. For the same molecule, the IC50 in data set [1] is 1 to 10 µM. For the same molecule, the half-maximal inhibitory concentration (IC50) at BRD4_2 fell in the range of 1 to 10 µM.
On to `CC1=C(Nc2ccc3ccccc3c2)CCC1=O` [Example 01-27, 2-methyl-3-(naphthalen-2-ylamino)cyclopent-2-enone], for which the melting point is 248 to 250 °C. In data set [1], the IC50 fell in the range of 1 to 10 µM. The IC50 on BRD4_2 lay in the range of 1 to 10 µM.
For `CC1=C(Nc2ccccn2)CCC1=O` [Example 01-28, 2-methyl-3-(pyridin-2-ylamino)cyclopent-2-enone], the melting point fell in the range of 163 to 165 °C. In addition, the IC50 in data set [1] was more than 10 µM. Moreover, the IC50 on BRD4_2 is more than 10 µM.
Consider `CC1=C(Nc2cccnc2)CCC1=O` [Example 01-29, 2-methyl-3-(pyridin-3-ylamino)cyclopent-2-enone], for which the melting point is 133 to 135 °C. In data set [1], the IC50 was more than 10 µM. The same molecule yielded an IC50 on BRD4_2 of more than 10 µM.
On to `CC1=C(Nc2ccncc2)CCC1=O` [Example 01-30, 2-methyl-3-(pyridin-4-ylamino)cyclopent-2-enone], for which the melting point was 203 to 205 °C. Moreover, the IC50 in data set [1] lay within 1 to 10 µM. The IC50 on BRD4_2 lay in the range of 1 to 10 µM.
For `CC1=C(Nc2ccc(C(N)=O)cc2)CCCC1=O` [Example 01-35, 4((2-methyl-3-oxocyclohex-1-en-1-yl)amino)benzamide], the melting point was 221 to 223 °C. Also, in data set [1], the IC50 lay in the range of 1 to 10 µM. In addition, at BRD4_2, the IC50 was in the range of 1 to 10 µM.
`CC1=C(Nc2cccc(CC(=O)O)c2)CCCC1=O` [Example 01-37, 2-(3((2-methyl-3-oxocyclohex-1-en-1-yl)amino)phenyl)acetic acid] had a melting point of 203 to 207 °C. For the same molecule, the IC50 in data set [1] was more than 10 µM. The same molecule displayed an IC50 at BRD4_2 of more than 10 µM.
Regarding `CC(=O)Nc1ccc(Cl)c(NC2=C(C)C(=O)CC2)c1` [Example 01-42, N-(4-chloro-3-((2-methyl-3-oxocyclopent-1-en-1-yl)amino)phenyl)-acetamide], the melting point was in the range of 265 to 268 °C. Besides, the IC50 in data set [1] was less than 1 µM. The IC50 on BRD4_2 was in the range of 1 to 10 µM.
`COC(=O)c1ccc(NC2=C(C)C(=O)CC2)c(I)c1` [Example 01-43, methyl 3-iodo-4-((2-methyl-3-oxocyclopent-1-en-1-yl)amino)benzoate] returned a melting point of 178 to 180 °C. In addition, the IC50 in data set [1] was in the range of 1 to 10 µM. In addition, the IC50 on BRD4_2 lay within 1 to 10 µM.
`CC1=C(Nc2cccc(C(=O)O)c2Cl)CCC1=O` [Example 01-44, 2-chloro-3((2-methyl-3-oxocyclopent-1-en-1-yl)amino)benzoic acid] had a melting point of 230 to 232 °C. In addition, the IC50 in data set [1] was in the range of 1 to 10 µM. The 50% inhibitory concentration (IC50) at BRD4_2 is more than 10 µM.
For `CC1=C(Nc2cc(C(=O)O)ccc2Br)CCCC1=O` [Example 01-48, 4-bromo-3((2-methyl-3-oxocyclohex-1-en-1-yl)amino)benzoic acid], in that order: 265 to 267 °C, 1 to 10 µM and more than 10 µM.
Regarding `CC1=C(Nc2ncccc2Cl)CCCC1=O` [Example 01-49, 3-[(3-chloropyridin-2-yl)amino]-2-methylcyclohex-2-en-1-one], the melting point lay in the range of 113 to 115 °C. For the same molecule, in data set [1], the IC50 lay in the range of 1 to 10 µM. Moreover, the IC50 on BRD4_2 was more than 10 µM.
Regarding `CC1=C(Nc2nccnc2Cl)CCCC1=O` [Example 01-50, 3-[(3-chloropyrazin-2-yl)amino]-2-methylcyclohex-2-en-1-one], the melting point was 116 to 118 °C. For the same molecule, the IC50 in data set [1] is more than 10 µM. For the same molecule, at BRD4_2, the IC50 was more than 10 µM.
Take `CC1=C(Nc2ccncc2Cl)CCCC1=O` [Example 01-51, 3-[(3-chloropyridin-4-yl)amino]-2-methylcyclohex-2-en-1-one]: the melting point fell in the range of 135 to 138 °C. For the same molecule, the IC50 in data set [1] fell in the range of 1 to 10 µM. In addition, the IC50 at BRD4_2 is more than 10 µM.
Molecule `CC1=C(Nc2cc(C(=O)O)c3ccccc3c2)CCCC1=O` [Example 01-52, 3-[(2-methyl-3-oxocyclohex-1-en-1-yl)amino]naphthalene-1-carboxylic acid] showed a melting point of 270 to 272 °C. Besides, in data set [1], the IC50 was 1 to 10 µM. Besides, the half-inhibitory concentration (IC50) at BRD4_2 fell in the range of 1 to 10 µM.
In the case of `CC1=C(Nc2ccc3cc(C(=O)O)ccc3c2Cl)CCCC1=O` [Example 01-53, 5-chloro-6-[(2-methyl-3-oxocyclohex-1-en-1-yl)amino]naphthalene-2-carboxylic acid], the melting point is 272 to 275 °C (dec.). In addition, in data set [1], the IC50 is less than 1 µM. Besides, on BRD4_2, the concentration for half-maximal inhibition (IC50) fell in the range of 1 to 10 µM.
In turn, `CC1=C(Nc2ccc3ncccc3c2)CCCC1=O` [Example 01-54, 2-methyl-3-[(quinolin-6-yl)amino]cyclohex-2-en-1-one] gave a melting point of 208 to 210 °C. The IC50 in data set [1] was 1 to 10 µM. Further, the IC50 at BRD4_2 was in the range of 1 to 10 µM.
As to `CC1=C(Nc2ccc3cnccc3c2)CCCC1=O` [Example 01-55, 3-[(isoquinolin-6-yl)amino]-2-methylcyclohex-2-en-1-one], the melting point was 163 to 165 °C. In addition, the IC50 in data set [1] lay in the range of 1 to 10 µM. Moreover, the IC50 on BRD4_2 is 1 to 10 µM.
`CC1=C(Nc2ccc3ccncc3c2)CCCC1=O` [Example 01-56, 3-[(isoquinolin-7-yl)amino]-2-methylcyclohex-2-en-1-one] yielded a melting point of 145 to 147 °C. In addition, in data set [1], the IC50 was in the range of 1 to 10 µM. Moreover, the IC50 on BRD4_2 was more than 10 µM.
`CC1=C(Nc2ccc3cccnc3c2)CCCC1=O` [Example 01-57, 2-methyl-3-[(quinolin-7-yl)amino]cyclohex-2-en-1-one] yielded a melting point of 133 to 135 °C. Also, in data set [1], the IC50 was 1 to 10 µM. This molecule also returned an IC50 at BRD4_2 of 1 to 10 µM.
In turn, `CC1=C(Nc2cc3ccccc3cn2)CCCC1=O` [Example 01-58, 3-[(isoquinolin-3-yl)amino]-2-methylcyclohex-2-en-1-one] came in with a melting point of 205 to 208 °C. In data set [1], the IC50 was in the range of 1 to 10 µM. In addition, on BRD4_2, the IC50 fell in the range of 1 to 10 µM.
The molecule `CC1=C(Nc2cnc3ccccc3c2)CCCC1=O` [Example 01-59, 2-methyl-3-[(quinolin-3-yl)amino]cyclohex-2-en-1-one] yielded a melting point of 172 to 175 °C. Further, in data set [1], the IC50 lay in the range of 1 to 10 µM. On BRD4_2, this molecule displayed an IC50 of more than 10 µM.
